Measured values published in PubChem BioAssay (NCI).
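Here, GI50 denotes the concentration required for 50% inhibition of growth. The concentration for full growth arrest is given as TGI.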

Columns and labels:
Assay in all cases: NCI-60 cell line screen, 384-well format
[1] = system: MCF7 breast
[2] = system: SK-MEL-5 melanoma
[3] = system: EKVX NSCLC
[4] = system: HCT-15 colon
[5] = system: HOP-92 NSCLC
[6] = system: SF-295 CNS
[7] = system: UACC-62 melanoma
[8] = system: U251 glioblastoma
[9] = system: UACC-257 melanoma
[10] = system: NCI-H226 lung
[11] = system: BT-549 breast
[12] = system: IGROV1 ovarian
[13] = system: SR leukemia
[14] = system: SK-MEL-2 melanoma
[15] = system: OVCAR-4 ovarian
[16] = system: A498 renal
[17] = system: MALME-3M melanoma
[18] = system: SNB-19 CNS
[19] = system: NCI/ADR-RES ovarian
[20] = system: SF-539 CNS
[21] = system: MOLT-4 leukemia
[22] = system: OVCAR-5 ovarian
[23] = system: SK-OV-3 ovarian
[24] = system: SN12C renal
[25] = system: NCI-H23 lung
[26] = system: T-47D breast
[27] = system: DU-145 prostate
[28] = system: SW-620 colon
[29] = system: OVCAR-3 ovarian
[30] = system: HT29 colon
[31] = system: OVCAR-8 ovarian
[32] = system: NCI-H522 lung
[33] = system: RPMI-8226 leukemia
[34] = system: SK-MEL-28 melanoma
[35] = system: NCI-H460 NSCLC
[36] = system: PC-3 prostate
[37] = system: SF-268 CNS
[38] = system: M14 melanoma
[39] = system: SNB-75 CNS
[40] = system: ACHN renal
[41] = system: 786-0 renal
[42] = system: MDA-MB-435 melanoma
[43] = system: KM12 colon
[44] = system: HS 578T breast
[45] = system: COLO 205 colon
[46] = system: HL-60(TB) leukemia
[47] = system: TK-10 renal
[48] = system: A549 NSCLC
[49] = system: HOP-62 NSCLC
[50] = system: NCI-H322M lung
[51] = system: MDA-MB-231 breast
[52] = system: HCC-2998 colon
[53] = system: RXF 393 renal
[54] = system: CAKI-1 renal
[55] = system: CCRF-CEM leukemia
[56] = system: MDA-MB-468 breast

With `NCC(=O)CCC(=O)O` the GI50 [1] was greater than 100 µM, the TGI [1] was greater than 100 µM and the GI50 [2] was greater than 100 µM. The TGI [2] was greater than 100 µM, the GI50 [3] was greater than 100 µM and the TGI [3] was greater than 100 µM. It also gave a GI50 [4] greater than 100 µM, a TGI [4] greater than 100 µM and a GI50 [5] greater than 100 µM. For the same compound, the TGI [5] was greater than 100 µM, the GI50 [6] was greater than 100 µM and the TGI [6] was greater than 100 µM. For the same compound, the GI50 [7] was greater than 100 µM, the TGI [7] was greater than 100 µM and the GI50 [8] was greater than 100 µM. It also gave a TGI [8] greater than 100 µM, a GI50 [9] greater than 100 µM and a TGI [9] greater than 100 µM. The GI50 [10] was greater than 100 µM, the TGI [10] was greater than 100 µM and the GI50 [11] was greater than 100 µM. The TGI [11] was greater than 100 µM, the GI50 [12] was greater than 100 µM and the TGI [12] was greater than 100 µM. It also gave a GI50 [13] greater than 100 µM, a TGI [13] greater than 100 µM and a GI50 [14] greater than 100 µM. The TGI [14] was greater than 100 µM, the GI50 [15] was 62.9 µM and the TGI [15] was greater than 100 µM. For the same compound, the GI50 [16] was greater than 100 µM, the TGI [16] was greater than 100 µM and the GI50 [17] was greater than 100 µM. For the same compound, the TGI [17] was greater than 100 µM, the GI50 [18] was greater than 100 µM and the TGI [18] was greater than 100 µM. For the same compound, the GI50 [19] was greater than 100 µM, the TGI [19] was greater than 100 µM and the GI50 [20] was greater than 100 µM. The TGI [20] was greater than 100 µM, the GI50 [21] was 73.2 µM and the TGI [21] was greater than 100 µM. For the same compound, the GI50 [22] was greater than 100 µM, the TGI [22] was greater than 100 µM and the GI50 [23] was 45.2 µM. It also gave a TGI [23] greater than 100 µM, a GI50 [24] greater than 100 µM and a TGI [24] greater than 100 µM. The GI50 [25] was greater than 100 µM, the TGI [25] was greater than 100 µM and the GI50 [26] was greater than 100 µM. The TGI [26] was greater than 100 µM, the GI50 [27] was greater than 100 µM and the TGI [27] was greater than 100 µM. It also gave a GI50 [28] greater than 100 µM, a TGI [28] greater than 100 µM and a GI50 [29] greater than 100 µM. The TGI [29] was greater than 100 µM, the GI50 [30] was greater than 100 µM and the TGI [30] was greater than 100 µM. The GI50 [31] was greater than 100 µM, the TGI [31] was greater than 100 µM and the GI50 [32] was greater than 100 µM. The TGI [32] was greater than 100 µM, the GI50 [33] was greater than 100 µM and the TGI [33] was greater than 100 µM. For the same compound, the GI50 [34] was greater than 100 µM, the TGI [34] was greater than 100 µM and the GI50 [35] was greater than 100 µM. For the same compound, the TGI [35] was greater than 100 µM, the GI50 [36] was greater than 100 µM and the TGI [36] was greater than 100 µM. For the same compound, the GI50 [37] was greater than 100 µM, the TGI [37] was greater than 100 µM and the GI50 [38] was greater than 100 µM. For the same compound, the TGI [38] was greater than 100 µM, the GI50 [39] was greater than 100 µM and the TGI [39] was greater than 100 µM. For the same compound, the GI50 [40] was greater than 100 µM, the TGI [40] was greater than 100 µM and the GI50 [41] was greater than 100 µM. The TGI [41] was greater than 100 µM, the GI50 [42] was greater than 100 µM and the TGI [42] was greater than 100 µM. It also gave a GI50 [43] greater than 100 µM, a TGI [43] greater than 100 µM and a GI50 [44] greater than 100 µM. The TGI [44] was greater than 100 µM, the GI50 [45] was greater than 100 µM and the TGI [45] was greater than 100 µM. For the same compound, the GI50 [46] was greater than 100 µM, the TGI [46] was greater than 100 µM and the GI50 [47] was greater than 100 µM. The TGI [47] was greater than 100 µM, the GI50 [48] was greater than 100 µM and the TGI [48] was greater than 100 µM. It also gave a GI50 [49] greater than 100 µM, a TGI [49] greater than 100 µM and a GI50 [50] greater than 100 µM. For the same compound, the TGI [50] was greater than 100 µM, the GI50 [51] was greater than 100 µM and the TGI [51] was greater than 100 µM. It also gave a GI50 [52] greater than 100 µM, a TGI [52] greater than 100 µM and a GI50 [53] greater than 100 µM. For the same compound, the TGI [53] was greater than 100 µM, the GI50 [54] was greater than 100 µM and the TGI [54] was greater than 100 µM. For the same compound, the GI50 [55] was 62.4 µM, the TGI [55] was greater than 100 µM and the GI50 [56] was 26.7 µM. It also gave a TGI [56] of 74.7 µM.
